Experimental data taken from US9527885B2, “Hepatitis C virus inhibitors” (BRISTOL-MYERS SQUIBB COMPANY, priority 2011, dated 2016).
Read-outs that look alike come from different tables or passages of the source.

Assays:
[1] = test system: HCV genotype 1a (H77 strain) replicon in HUH-7 cells; assay: HCV replicon luciferase reporter assay, genotype 1a; format: cell-based; settings: Hepatitis C virus, Huh-7, 72 h, HCV genotype 1a replicon luciferase, 3 days incubation, read-out: LE_1a (EC50, range)
Summary of the method: (§1)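 Twenty-point, threefold compound titrations (0.5% DMSO) were incubated 3 days at 37 °C with 3.0×10^3 HUH-7 cells/well in 4% FCS. The cells stably carried luciferase replicons: genotype 1b Con1 (S1179I) or 1a H77 (NS3 P1496L, NS5A S2204I). Renilla signal was read after 2 h with 7.5 μM EnduRen, and EC50 was taken from a four-parameter logistic fit. Cytotoxicity (CC50) was measured by Cell Titer-Blue, 8 h.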

[2] = test system: HCV genotype 1b (Con1) replicon in HUH-7 cells; assay: HCV replicon luciferase reporter assay, genotype 1b; format: cell-based; settings: Hepatitis C virus, 72 h, HCV genotype 1b replicon luciferase, 3 days incubation, read-out: LE_1b (EC50, range)
Summary of the method: as §1

For `CC[C@@H]1C[C@H](C)CC/C=C\[C@@H]2C[C@@]2(C(=O)NS(=O)(=O)C2(C)CC2)NC(=O)[C@@H]2C[C@@H](Oc3ncc(OC)c4ccc(F)cc34)CN2C(=O)[C@H]1NC(=O)OC(C)(C)C(F)(F)F` [Compound 4186, 1,1,1-trifluoro-2-methylpropan-2-yl (2R,6S,7R,9R,13aS,14aR,16aS,Z)-7-ethyl-2-(7-fluoro-4-methoxyisoquinolin-1-yloxy)-9-methyl-14a-(1-methylcyclopropylsulfonylcarbamoyl)-5,16-dioxo-1,2,3,5,6,7,8,9,10,11,13a,14,14a,15,16,16a-hexadecahydrocyclopropa[e]pyrrolo[1,2-a][1,4]diazacyclopentadecin-6-ylcarbamate], which EC50 ([1]; class symbols) is on record?
The EC50 was < 5.46 nM.

And the EC50 ([2]; class symbols)?
The EC50 was < 5.46 nM.

With `[2H]C([2H])([2H])C(OC(=O)N[C@@H]1C(=O)N2C[C@H](Oc3nccc4cc(OC)ccc34)C[C@H]2C(=O)N[C@]2(C(=O)NS(=O)(=O)C3(C)CC3)C[C@H]2/C=C\CC[C@H](C)C[C@H]1C)(C([2H])([2H])[2H])C(F)(F)F` [Compound 5174, 1,1,1,3,3,3-hexadeutero-2-(trifluoromethyl)propan-2-yl ((2R,6S,7R,9S,13aS,14aR,16aS,Z)-2-((6-methoxyisoquinolin-1-yl)oxy)-7,9-dimethyl-14a-(((1-methylcyclopropyl)sulfonyl)carbamoyl)-5,16-dioxo-1,2,3,5,6,7,8,9,10,11,13a,14,14a,15,16,16a-hexadecahydrocyclopropa[e]pyrrolo[1,2-a][1,4]diazacyclopentadecin-6-yl)carbamate] as the molecule, how does the EC50 ([1]; range class) read?
The EC50 was < 5.46 nM.

What about the EC50 ([2]; range class) of the same molecule?
Its EC50 is < 5.46 nM.

With `CCCOc1ccc2c(O[C@@H]3C[C@H]4C(=O)N[C@]5(C(=O)NS(=O)(=O)C6CC6)C[C@H]5/C=C\CC[C@@H](C)C[C@@H](C)[C@H](NC(=O)OC(C(F)(F)F)(C(Cl)(Cl)Cl)C(Cl)(Cl)Cl)C(=O)N4C3)nccc2c1` [Compound 5173, 1,1,1,3,3,3-hexachloro-2-(trifluoromethyl)propan-2-yl ((2R,6S,7R,9R,13aS,14aR,16aS,Z)-14a-((cyclopropylsulfonyl)carbamoyl)-7,9-dimethyl-5,16-dioxo-2-((6-propoxyisoquinolin-1-yl)oxy)-1,2,3,5,6,7,8,9,10,11,13a,14,14a,15,16,16a-hexadecahydrocyclopropa[e]pyrrolo[1,2-a][1,4]diazacyclopentadecin-6-yl)carbamate] as the molecule, how does the EC50 ([1]; range class) read?
The EC50 was < 5.46 nM.

And the EC50 ([2]; range class)?
Its EC50 is < 5.46 nM.

With `CCOc1cnc(O[C@@H]2C[C@H]3C(=O)N[C@]4(C(=O)NS(=O)(=O)C5(C)CC5)C[C@H]4/C=C\CC[C@H](C)C[C@@H](C)[C@H](NC(=O)OC(C)(C)C(C)(F)F)C(=O)N3C2)c2ccccc12` [Compound 5112, 3,3-difluoro-2-methylbutan-2-yl ((2R,6S,7R,9S,13aS,14aR,16aS,Z)-2-((4-ethoxyisoquinolin-1-yl)oxy)-7,9-dimethyl-14a-(((1-methylcyclopropyl)sulfonyl)carbamoyl)-5,16-dioxo-1,2,3,5,6,7,8,9,10,11,13a,14,14a,15,16,16a-hexadecahydrocyclopropa[e]pyrrolo[1,2-a][1,4]diazacyclopentadecin-6-yl)carbamate] as the molecule, how does the EC50 ([1]; class symbols) read?
Its EC50 is 4.82 to 103 nM.

And the EC50 ([2]; class symbols)?
Its EC50 is 4.82 to 103 nM.

How did the EC50 ([1]; range class) turn out when `COc1ccc2c(O[C@@H]3C[C@H]4C(=O)N[C@]5(C(=O)NS(=O)(=O)C6CC6)C[C@H]5/C=C\CC[C@H](C)C[C@@H](C)[C@H](NC(=O)O[C@@H]5C[C@@H]6C[C@@H]6C5)C(=O)N4C3)nc(-c3ccc(OC(C)C)nc3)cc2c1` [Compound 5218, (1R,3r,5S)-bicyclo[3.1.0]hexan-3-yl ((2R,6S,7R,9S,13aS,14aR,16aS,Z)-14a-((cyclopropylsulfonyl)carbamoyl)-2-((3-(6-isopropoxypyridin-3-yl)-6-methoxyisoquinolin-1-yl)oxy)-7,9-dimethyl-5,16-dioxo-1,2,3,5,6,7,8,9,10,11,13a,14,14a,15,16,16a-hexadecahydrocyclopropa[e]pyrrolo[1,2-a][1,4]diazacyclopentadecin-6-yl)carbamate] was run?
Its EC50 is < 5.46 nM.

And the EC50 ([2]; range class)?
Its EC50 is < 5.46 nM.

For `C[C@@H]1CC/C=C\[C@@H]2C[C@@]2(C(=O)NS(=O)(=O)C2CC2)NC(=O)[C@@H]2C[C@@H](Oc3nc4ccccc4c4ccccc34)CN2C(=O)[C@@H](NC(=O)OC(C)(C)C(F)(F)F)[C@H](C)C1` [Compound 5185, 1,1,1-trifluoro-2-methylpropan-2-yl ((2R,6S,7R,9R,13aS,14aR,16aS,Z)-14a-((cyclopropylsulfonyl)carbamoyl)-7,9-dimethyl-5,16-dioxo-2-(phenanthridin-6-yloxy)-1,2,3,5,6,7,8,9,10,11,13a,14,14a,15,16,16a-hexadecahydrocyclopropa[e]pyrrolo[1,2-a][1,4]diazacyclopentadecin-6-yl)carbamate], which EC50 ([1]; range class) is on record?
Its EC50 is < 5.46 nM.

And the EC50 ([2]; range class)?
The EC50 was < 5.46 nM.

Which results are given for `CCOc1ccc2c(O[C@@H]3C[C@H]4C(=O)N[C@]5(C(=O)NS(=O)(=O)C6(C)CC6)C[C@H]5/C=C\CC[C@@H](C)C[C@@H](C)[C@H](NC(=O)OC(C)(C)C(F)(F)F)C(=O)N4C3)nccc2c1` [Compound 5136, 1,1,1-trifluoro-2-methylpropan-2-yl ((2R,6S,7R,9R,13aS,14aR,16aS,Z)-2-((6-ethoxyisoquinolin-1-yl)oxy)-7,9-dimethyl-14a-(((1-methylcyclopropyl)sulfonyl)carbamoyl)-5,16-dioxo-1,2,3,5,6,7,8,9,10,11,13a,14,14a,15,16,16a-hexadecahydrocyclopropa[e]pyrrolo[1,2-a][1,4]diazacyclopentadecin-6-yl)carbamate]?
EC50 ([1]; class symbols): < 5.46 nM; EC50 ([2]; class symbols): < 5.46 nM

How did the EC50 ([1]; range class) turn out when `COc1ccc2c(O[C@@H]3C[C@H]4C(=O)N[C@]5(C(=O)NS(=O)(=O)C6CC6)C[C@H]5/C=C\CC[C@@H](C)C[C@@H](C)[C@H](NC(=O)O[C@@H]5C[C@@H]6C[C@@H]6C5)C(=O)N4C3)nc(-c3ccc(OC(C)C)nc3)cc2c1` [Compound 5219, (1R,3r,5S)-bicyclo[3.1.0]hexan-3-yl ((2R,6S,7R,9R,13aS,14aR,16aS,Z)-14a-((cyclopropylsulfonyl)carbamoyl)-2-((3-(6-isopropoxypyridin-3-yl)-6-methoxyisoquinolin-1-yl)oxy)-7,9-dimethyl-5,16-dioxo-1,2,3,5,6,7,8,9,10,11,13a,14,14a,15,16,16a-hexadecahydrocyclopropa[e]pyrrolo[1,2-a][1,4]diazacyclopentadecin-6-yl)carbamate] was run?
The EC50 was < 5.46 nM.

What about the EC50 ([2]; range class) of the same molecule?
The EC50 was < 5.46 nM.

Which EC50 ([1]; range class) does the source give for `C[C@@H]1CC/C=C\[C@@H]2C[C@@]2(C(=O)NS(=O)(=O)C2(CF)CC2)NC(=O)[C@@H]2C[C@@H](Oc3nccc4c5c(ccc34)OCCO5)CN2C(=O)[C@@H](NC(=O)OC(C)(C)C)[C@H](C)C1` [Compound 5321, tert-butyl ((2R,6S,7R,9R,13aS,14aR,16aS,Z)-2-((2,3-dihydro-[1,4]dioxino[2,3-f]isoquinolin-7-yl)oxy)-14a-(((1-(fluoromethyl)cyclopropyl)sulfonyl)carbamoyl)-7,9-dimethyl-5,16-dioxo-1,2,3,5,6,7,8,9,10,11,13a,14,14a,15,16,16a-hexadecahydrocyclopropa[e]pyrrolo[1,2-a][1,4]diazacyclopentadecin-6-yl)carbamate] here?
Its EC50 is < 5.46 nM.

What about the EC50 ([2]; range class) of the same molecule?
The EC50 was < 5.46 nM.
